One data set has as its system E98. Kind of data set: Cell survival assay (crystal violet), continuous exposure. The data set is classed as cell-based, human. The conditions noted are these: Fig. 1A. How it is done:
(§1) Wells were pre-coated with poly-ornithine (15 µg/ml for 3 h at room temperature) and subsequently with laminin (7.5 µg/ml for 1 h at 37 °C) prior to seeding GSCs to make them adherent without inducing differentiation. […] Cells were plated in 24-wells plates at low cell densities (2,000–10,000 cells/well) and exposed to different concentrations of NTRC0066-0 24 h later. NTRC0066-0 was dissolved in DMSO (Sigma-Aldrich) for in vitro experiments and final DMSO concentrations never exceeded 0.1%. When untreated wells were confluent (approximately 6–10 days after seeding, dependent on the cell line), cells were fixed and stained using a solution containing 0.5% crystal violet (w/v; Sigma-Aldrich) and 6% glutaraldehyde (v/v; Honeywell, Morris Plains, NJ). Plates were imaged using a Chemi-Doc XRS+ (Bio-rad, Hercules, CA) and analyzed using the Colony Area plugin of ImageJ [24]. IC50 curves were fitted and plotted using the ‘log(inhibitor) vs. normalized response – Variable slope’ fitting procedure of GraphPad Prism v10.3 (GraphPad Software, La Jolla, CA). Monotherapy curves were corrected for untreated controls.

The next data set deals with HS683. The description is as above. The data set is classed as cell-based, human. The conditions noted are these: Fig. 1A. The method, then: as §1
The next data set relates to LN-751. The description is as above. The data set is classed as cell-based, human. Particulars: LN-751, continuous exposure, Fig. 1A. How it is done: as §1
The subject of another data set is T98G. The data set is described as above. The data set is classed as cell-based, human. Particulars: Fig. 1A. The method, then: as §1
A short description of data set [1]: Pharmacokinetics and brain penetration in wild-type FVB mice. The data set is classed as in vivo. How it is done:
(§2) The pharmacokinetics of NTRC 0066-0 were analyzed in wild-type (WT), Abcb1a/b^−/−, Abcg2^−/−, Abcb1a/b^−/−;Abcg2^−/− and Abcb1a/b^−/−;Abcg2^−/−;Abcc4^−/− FVB mice. All knockout mice strains have been developed at the Netherlands Cancer Institute. For i.v. administration, NTRC0066-0 was formulated in DMSO: Cremophor EL: saline (1:1:8 v/v) and injected at a dose of 5 mg/kg. For i.p and oral administration, NTRC0066-0 was administered at 5, 10 or 20 mg/kg as indicated. Serial blood sampling was done by tail vein bleeding at specific time points. At terminal time points, blood was drawn by cardiac puncture followed by tissue collection. Plasma was obtained from whole blood by centrifugation (5 min, 5,000 rpm, 4 °C) and tissues were weighed and homogenized using a FastPrep®-24 (MP-Biomedicals, NY) in 1% (w/v) bovine serum albumin (Sigma-Aldrich) in water.
(§3) NTRC 0066-0 was extracted from in vitro and in vivo samples using liquid–liquid extraction with diethyl ether. Another MPS-1 inhibitor, Compound 5 (Cpd-5), was added to the samples as an internal standard. The dried organic phase was reconstituted in 30% methanol in water (v/v). Samples were measured using an LC-MS/MS system comprising an UltiMate 3000 LC Systems (Dionex, Sunnyvale, CA) and an API 4000 mass spectrometer (Sciex, Framingham, MA). Samples were injected on to a Securityguard C18 pre-column (Phenomenex, Utrecht, The Netherlands) connected to a ZORBAX Extend-C18 column (Agilent, Santa Clara, CA). Elution was done at a flow rate of 0.2 mL/min using a 5 min gradient from 20% to 95% B (mobile phase A was 0.1% HCOOH in water (v/v) and mobile phase B was methanol). 95% B was maintained for 3 min followed by re-equilibration at 20% B. Multiple reaction monitoring parameters were 566.2/391.4 (NTRC0066-0) and 581.6/397.0 (internal standard). Analyst® 1.6.2 software (Sciex) was used for system control and data analysis.
PK solver was used to determine pharmacokinetic parameters. The standard error of the oral bioavailability was calculated using the formula below: […]

The next data set deals with P-gp. Kind of data set: Brain penetration in Abcb1a/b-/- mice. Particulars: 1 h after 5 mg/kg i.v. The data set is classed as in vivo. How it is done: as §2, §3
The next data set concerns the target T1, BCRP (Mus musculus, UniProt Q7TMS5).
T1 construct: from tissue; host or cells: blood-brain barrier / brain of FVB mice (WT versus Abcg2-/-)
T1 sequence (Q7TMS5 1-657): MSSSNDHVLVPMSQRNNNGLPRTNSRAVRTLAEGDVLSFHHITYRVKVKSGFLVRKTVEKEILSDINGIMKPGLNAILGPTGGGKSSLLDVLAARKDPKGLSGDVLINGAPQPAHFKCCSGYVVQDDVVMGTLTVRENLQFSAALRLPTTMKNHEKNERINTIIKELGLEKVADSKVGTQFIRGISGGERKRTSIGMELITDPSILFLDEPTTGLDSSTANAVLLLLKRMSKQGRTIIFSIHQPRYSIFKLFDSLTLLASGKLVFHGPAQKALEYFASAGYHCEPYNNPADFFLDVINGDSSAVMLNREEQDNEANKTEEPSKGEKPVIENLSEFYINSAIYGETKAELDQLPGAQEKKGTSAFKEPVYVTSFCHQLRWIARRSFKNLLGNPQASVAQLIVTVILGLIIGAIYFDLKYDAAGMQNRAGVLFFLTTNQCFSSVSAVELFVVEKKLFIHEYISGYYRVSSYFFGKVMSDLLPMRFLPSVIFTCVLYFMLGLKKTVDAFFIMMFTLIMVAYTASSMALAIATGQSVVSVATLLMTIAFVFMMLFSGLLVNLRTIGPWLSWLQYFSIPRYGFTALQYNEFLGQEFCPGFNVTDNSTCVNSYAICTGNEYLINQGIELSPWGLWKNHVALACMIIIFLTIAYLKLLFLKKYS
Kind of data set: Brain penetration in Abcg2-/- mice. The conditions noted are these: 1 h after 5 mg/kg i.v. The data set is classed as in vivo. The method, then: as §2
NTRC 0066-0 was extracted from in vitro and in vivo samples using liquid–liquid extraction with diethyl ether. Another MPS-1 inhibitor, Compound 5 (Cpd-5), was added to the samples as an internal standard. The dried organic phase was reconstituted in 30% methanol in water (v/v). Samples were measured using an LC-MS/MS system comprising an UltiMate 3000 LC Systems (Dionex, Sunnyvale, CA) and an API 4000 mass spectrometer (Sciex, Framingham, MA). […]

With `CCc1cccc(CC)c1NC(=O)c1ccn2c1CCc1cnc(Nc3ccc(N4CCN(C)CC4)cc3OC)nc1-2` [NTRC 0066-0], the IC50 – broadly, the concentration that gives 50% inhibition – in the data set on E98 worked out at 23 nM. For the same compound, in the data set on HS683, the IC50 is 42 nM. In the data set with LN-751, this compound came in with an IC50 of 37 nM. Also, the half-inhibitory concentration (IC50) with T98G was 18 nM. Besides, the “Oral bioavailability (relative to i.p.)” value in data set [1] (WT mice) is “about 50%”. Also, the Brain-plasma ratio entry in data set [1] (WT mice, 1 h after 5 mg/kg i.v.) is reported as “approximately 4”. For the same compound, the Brain-to-plasma ratio result in data set [1] (WT mice, 24 h after 10 mg/kg p.o. or i.p.) is on record as “approximately 20”. Also, in data set [1] (WT, i.p. 10 mg/kg), the peak level (Cmax) was 780 ± 130 nM; the MRT (in general, the average time that molecules of a dose stay in the body) is reported as 3.2 ± 0.4 h; the t1/2 is on record as 2.5 ± 0.2 h; the tmax is 0.5 ± 0.3 h. Besides, the “Plasma AUCi.p.” value in data set [1] (WT, i.p. 10 mg/kg, 0-∞) was found to be 2.8 ± 0.45 µM·h. In addition, in data set [1] (WT, p.o. 10 mg/kg), the Cmax (usually the maximum level reached in the sampled fluid or tissue) was determined as 180 ± 6.7 nM, the MRT is on record as 4.7 ± 0.2 h, the t1/2 is recorded as 2.8 ± 0.2 h and the tmax amounted to 1.8 ± 1.5 h. Moreover, the “F (bioavailability)” value in data set [1] (WT, p.o. 10 mg/kg relative to i.p.) turned out to be 59 ± 11%. In addition, in data set [1] (WT, p.o. 10 mg/kg, 0-∞), the “Plasma AUCp.o.” value amounted to 1.7 ± 0.15 µM·h. Moreover, in the data set on P-gp, the “Brain concentration compared to WT mice” value is recorded as “markedly increased”, the “Brain-plasma ratio compared to WT mice” value is “markedly increased” and the “Plasma concentration compared to WT mice” value is recorded as “similar”. Further, the “Plasma and brain concentrations compared to WT mice” value on BCRP is listed as “no differences”.

For the origin of these results see publication PMC12909347, “Disconnect between in vitro and in vivo efficacy of the MPS1 inhibitor NTRC 0066-0 against glioblastoma” (Cellular Oncology, 2026).
